For this assay, the system named is streptavidin. In words: Affinity chromatography: elution of labeled streptavidin from biotinylated glass beads. To be noted: washing with solutions of increasing concentrations; absorbance of eluate (FIG. 5). It is filed as binding. How it is done: The biotinylated glass beads were added to 1 ml PBS, to which 50 μg of streptavidin labeled with Cy5 fluorescent dye was added (total dye: 0.3 OD640/ml). The resulting solution was stirred, then OD640 was measured again, the detected value was 0.003. […] Two chromatographic analyses were performed to verify the specific binding. During the first, 100 mg of the biotinylated glass beads was washed with biotin solutions with increasing concentrations, and in the second, the column containing biotinylated glass beads was washed with benzamidine solutions of increasing concentrations. The absorbance of the eluate was measured continuously (FIG. 5).

As for `O=C(O)CCCC[C@@H]1SC[C@@H]2NC(=O)N[C@@H]21` [biotin], the “Elution of fluorescent labeled streptavidin from biotinylated glass beads” value was “could be eluted only with the biotin solution”.

The values above are taken from patent publication US20100022415A1, “ACTIVE CARRIER, ITS PRODUCTION AND ITS USE” (AVICOR KET., priority 2006, published 2010).
